Data published in patent US6288089A, “Use of kinase inhibitors for treating neurodegenerative diseases” (priority 1999, dated 2001).
“Also recorded” adds a separate entry of the source.

Tests used:
[1] = test system: TH+ dopamine neurons of E15 rat ventral mesencephalic cultures; conditions: 10 μM; 18 h serum-free
Source text: To make this determination, select rat embryonic mesencephalic cultures were double stained for both the TH dopaminergic cell marker and for nuclear characteristics indicative of apoptosis. […] Following 18 hrs under these conditions, cultures were immunostained using anti-rat TH primary antibody followed by a fluorescent (FITC-conjugated) secondary antibody. Subsequently, cells were stained with a fluorescent Hoechst 33258 DNA dye. Only those cells containing nuclear chromatin condensations (pyknotic nuclei) were scored as apoptotic. Cells containing intact nuclei -were counted as healthy. In the entire experiment, a total of 5066 TH-immunoreactive neurons were examined for nuclear chromatin condensation. Four sample groups were tested:
In this Example, experiments to study tyrosine hydroxylase-positive apoptotic cells were conducted. E15 rat ventral mesencephalic cultures were grown in F12 medium containing 5% human placental serum for 24 hrs. […] Next, cultures were washed with PBS and fixed for 2 min in 1% paraformaldehyde followed by further fixation in 70% ethanol in glycine buffer at -20° C. for 10 min. […] Cells containing intact nuclei were counted as healthy. […] In the entire experiment, total of 5066 TH-immunoreactive neurons were examined for the nuclear chromatin condensation under a fluorescence microscope.

[2] = test system: transplanted embryonic rat ventral mesencephalic dopamine neurons; conditions: tissue preincubated 2 h with 10 μM; six weeks after transplantation
Procedure: Following the incubation, the tissue was immediately transplanted into the denervated rat striatum. Six weeks after transplantation, TH+ cells within the striatum were visualized following sacrifice of the animals, and cryotome sectioning and immunostaining for tyrosine hydroxylase (TH) using a polyclonal anti-rat TH primary antibody.
For the transplantation, one-half embryonic day 15 (E15) rat ventral mesencephalon was extruded into a strand using a 0.2 mm in diameter glass cannula made by heating a glass luer adaptor (Kimble-Kontes, Cat# 663500-0444). […] Following incubation, the tissue was immediately transplanted into the denervated rat striatum. The tissue strand was drawn up into a 24 g sterile stainless steel cannula attached to a microliter syringe and stereotaxically transplanted at the following coordinates (AP 0.0 mm form bregma, LAT3.0 mm form the midline, VD-3.5 to -7.5 mm below the dura) in 4.0 μl over 4 min.
Visualization of TH+ cells: Six weeks after transplantation, all animals were sacrificed, and their brains perfused with heparinized-saline followed by 4% paraformaldehyde. […] All TH-immunoreactive neurons were counted in every third section under a microscope. Abercrombie's correction was used to estimate the total number of TH+ neurons surviving in each transplant.

[3] = test system: TH+ dopamine neurons of E15 rat mesencephalic primary cultures; assay type: cell-based; conditions: 20 h serum withdrawal

Row | Structure (SMILES) | anti-apoptotic effect in dopamine neurons after serum withdrawal [1] | number of surviving dopamine neurons (TH+ cells) compared to sham-pretreated transplants [2] | surviving TH+ neurons/cm^2 ([3]; 1 μM inhibitor, serum control […]±30, no serum 283±32) [TH+ neurons/cm^2] | concentration at which the survival effect on TH+ neurons reached its maximum ([3]; 0.1-10 μM tested) [µM]
1 | C[S+]([O-])c1ccc(-c2nc(-c3ccc(F)cc3)c(-c3ccncc3)[nH]2)cc1 (stereo not shown) [SB 203580] | significant (p<0.001), although less dramatic than that of PD169316; also recorded: significant (p<0.001) although less dramatic than that of PD169316 | intermediate level | – | –
2 | Oc1ccc(-c2nc(-c3ccc(F)cc3)c(-c3ccncc3)[nH]2)cc1 [SB 202190] | – | – | 537±37 | 1
